Here are results for eight molecules from PubChem BioAssay (NCI).

The structures appear in SMILES notation.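 Briefly, cells in 96-well plates were exposed to five compound concentrations for 48 h, and endpoints were estimated by linear interpolation. TGI marks complete inhibition of growth.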 Where a SMILES comes first, the peptide text is derived from it. The star is where a group is joined. Boc = CC(C)(C)OC(=O)*

Some test systems named below: KM12 colon; SF-268 CNS; ACHN renal; SK-MEL-28 melanoma; A498 renal; T-47D breast; NCI/ADR-RES ovarian; OVCAR-5 ovarian; NCI-H226 lung; 786-0 renal; HT29 colon; MCF7 breast; NCI-H23 lung; OVCAR-4 ovarian; MALME-3M melanoma; RPMI-8226 leukemia; SW-620 colon; HCC-2998 colon.
Assay in all cases: NCI tumour cell line growth inhibition, 48 h

Consider `Cc1cc(C)c2c(=O)cc(-c3ccccc3)[nH]c2c1`, for which the TGI is 22.1 µM in the experiment with KM12 colon; 46.7 µM in the experiment with SF-268 CNS; 23.5 µM in the experiment with ACHN renal; 35.3 µM in the experiment on SK-MEL-28 melanoma; 10.5 µM in the experiment with A498 renal; greater than 76.2 µM in the experiment on T-47D breast. Moreover, the TGI in the experiment on NCI/ADR-RES ovarian is 34.3 µM; in the experiment with OVCAR-5 ovarian, greater than 92.3 µM; with NCI-H226 lung, 48.9 µM; in the experiment on 786-0 renal it was 11.4 µM; with HT29 colon, 27.1 µM; in the experiment with MCF7 breast, 22.2 µM. For the same molecule, the TGI in the experiment on NCI-H23 lung is 16.5 µM; with OVCAR-4 ovarian it was 31 µM; in the experiment on MALME-3M melanoma, greater than 80.4 µM; with RPMI-8226 leukemia it was 22.8 µM; in the experiment with SW-620 colon, greater than 100 µM.
On to `CCOC(=O)C1C(c2ccccc2)C2(C#N)C(=N)OC1(C)C2(C#N)C#N` (stereo not drawn), for which the TGI in the experiment on SF-268 CNS is 94 µM; in the experiment with ACHN renal it was 50.8 µM; in the experiment with A498 renal, 97.6 µM; in the experiment on T-47D breast, greater than 100 µM; in the experiment on NCI/ADR-RES ovarian, 85.9 µM; with OVCAR-5 ovarian, 72.6 µM. The TGI in the experiment on NCI-H226 lung is greater than 100 µM; in the experiment with HCC-2998 colon, 27 µM; in the experiment with 786-0 renal, 26.4 µM; with HT29 colon it was 29.4 µM; in the experiment on MCF7 breast, greater than 100 µM; in the experiment with NCI-H23 lung, 37 µM. Moreover, the TGI in the experiment with MALME-3M melanoma was 54.3 µM; in the experiment with RPMI-8226 leukemia it was 42.6 µM; in the experiment with SW-620 colon, greater than 100 µM.
Consider `Oc1c(Nc2ccccc2)cc2c3c1N=NC=3CCN=2`, for which the TGI with KM12 colon, in the experiment on SF-268 CNS, in the experiment on ACHN renal, in the experiment on SK-MEL-28 melanoma, in the experiment with A498 renal and with T-47D breast was greater than 100 µM throughout. The TGI was greater than 100 µM in the experiment with NCI/ADR-RES ovarian; greater than 100 µM in the experiment on OVCAR-5 ovarian; greater than 100 µM in the experiment with HCC-2998 colon; greater than 100 µM in the experiment on 786-0 renal; greater than 100 µM with HT29 colon; 69 µM with MCF7 breast. For the same molecule, the TGI in the experiment on NCI-H23 lung is greater than 100 µM; in the experiment on OVCAR-4 ovarian it was greater than 100 µM; in the experiment on MALME-3M melanoma, 29.1 µM; in the experiment on RPMI-8226 leukemia it was greater than 100 µM; with SW-620 colon it was greater than 100 µM.
With `COc1cc(/C=C2\N=C(c3ccccc3)N(c3ccc4c(c3)Sc3cc(N5C(=O)/C(=C/c6cc(OC)c(OC)c(OC)c6)N=C5c5ccccc5)ccc3N4)C2=O)cc(OC)c1OC`, the TGI in the experiment on KM12 colon was greater than 100 µM; with SF-268 CNS, 37.5 µM; in the experiment on ACHN renal, 36.4 µM; in the experiment on SK-MEL-28 melanoma it was greater than 100 µM; in the experiment on A498 renal it was 43.1 µM; with T-47D breast, 70.2 µM. The TGI was greater than 100 µM in the experiment on NCI/ADR-RES ovarian; 39.6 µM in the experiment with OVCAR-5 ovarian; 50.6 µM in the experiment with HCC-2998 colon; 40.9 µM with 786-0 renal; greater than 100 µM with HT29 colon; 37.1 µM with MCF7 breast. Moreover, the TGI in the experiment with NCI-H23 lung was 40.3 µM; in the experiment with OVCAR-4 ovarian, 36.9 µM; in the experiment on MALME-3M melanoma, 41.1 µM; in the experiment on RPMI-8226 leukemia, 88.9 µM; with SW-620 colon, greater than 100 µM.
Take `O=C(c1ccccc1)c1ccc(N2C(=O)/C(=C/c3cccc([N+](=O)[O-])c3)N=C2c2ccccc2)c(N2C(=O)/C(=C/c3cccc([N+](=O)[O-])c3)N=C2c2ccccc2)c1`: the TGI with KM12 colon, in the experiment with SF-268 CNS, in the experiment on ACHN renal, with SK-MEL-28 melanoma, in the experiment with A498 renal and with T-47D breast was greater than 100 µM each time. Moreover, the TGI was greater than 100 µM in the experiment on NCI/ADR-RES ovarian; greater than 100 µM in the experiment with OVCAR-5 ovarian; 60.1 µM in the experiment with HCC-2998 colon; greater than 100 µM with 786-0 renal; greater than 100 µM in the experiment with HT29 colon; greater than 100 µM in the experiment on MCF7 breast. For the same molecule, the TGI in the experiment on OVCAR-4 ovarian, in the experiment on RPMI-8226 leukemia and in the experiment with SW-620 colon was greater than 100 µM throughout.
For the molecule `CNC(=S)N/N=C(\C)c1cc(OC)c(OC)cc1O`, the TGI in the experiment with KM12 colon, in the experiment with SF-268 CNS, in the experiment with ACHN renal, in the experiment on SK-MEL-28 melanoma, in the experiment on A498 renal and in the experiment on T-47D breast was greater than 100 µM in each case. For the same molecule, the TGI in the experiment with NCI/ADR-RES ovarian, in the experiment with OVCAR-5 ovarian, with HCC-2998 colon, with 786-0 renal, in the experiment with HT29 colon and in the experiment on MCF7 breast was greater than 100 µM in each case. Besides, the TGI with MALME-3M melanoma, in the experiment on RPMI-8226 leukemia and in the experiment with SW-620 colon was greater than 100 µM in each case.
With `COc1cc(Br)cc2c1O[C@H]1C(=O)CC3CC21CCN3C` (stereo partly drawn), the TGI is greater than 100 µM in the experiment with KM12 colon; greater than 100 µM in the experiment with SF-268 CNS; greater than 100 µM in the experiment with ACHN renal; greater than 100 µM with SK-MEL-28 melanoma; greater than 100 µM in the experiment with A498 renal; 74 µM in the experiment on T-47D breast. The TGI in the experiment on NCI/ADR-RES ovarian, in the experiment on OVCAR-5 ovarian, with HCC-2998 colon, with 786-0 renal, in the experiment with HT29 colon and in the experiment on MCF7 breast was greater than 100 µM throughout. In addition, the TGI with NCI-H23 lung is 68.2 µM; in the experiment on MALME-3M melanoma it was greater than 100 µM; in the experiment with RPMI-8226 leukemia, 63.4 µM; with SW-620 colon, greater than 100 µM.
On to `CNC(=O)CNC(=O)C(NC(=O)CNC(=O)C1CCCN1C(=O)C(C)NC(=O)C(NC(=O)OC(C)(C)C)C(C)C)C(C)C` (stereo not drawn) (Boc-VAPGVG-NHMe; configuration not given here), for which the TGI in the experiment with SF-268 CNS, with ACHN renal, in the experiment on SK-MEL-28 melanoma, in the experiment on A498 renal, in the experiment on T-47D breast and with NCI/ADR-RES ovarian was greater than 100 µM throughout. In addition, the TGI in the experiment on OVCAR-5 ovarian, with HCC-2998 colon, in the experiment with 786-0 renal, in the experiment with HT29 colon, in the experiment with MCF7 breast and with NCI-H23 lung was greater than 100 µM throughout. In addition, the TGI in the experiment with OVCAR-4 ovarian, with MALME-3M melanoma, in the experiment with RPMI-8226 leukemia and with SW-620 colon was greater than 100 µM in each case.
